# Data from US7803844B2, “Composition for preventing and/or treating bone disease, physiologically functional or health food containing thereof, and pharmaceutical containing thereof as active ingredients” (Erina Co. Inc., priority 2004, dated 2010).
# Tests used:
# [1] = system: MφRAW264 cells; test: Proliferated cell number counting assay (XTT cell viability)
# Protocol: As a non-RI method for determining cell proliferation and cell viability, color reaction by using XTT was employed. MφRAW264 cells were suspended in 10% FBS-MEM, and plated into the 96-well microplate at 0.4×10^4 cells/0.1 mL; then incubated for 1 day. Subsequently, 10% FBS-MEM solution of osteoclast differentiation factor (ODF/RANKL), 100 ng/mL, was added into 0.1 mL per well at final concentration of RANKL, 50 ng/mL. At the same time, honokiol solution at respective concentration was added into the wells. For the control wells, equal volume of methanol not including honokiol was added.
# After 3 days incubation, the proliferated cells were counted by using commercially available Cell Proliferation Kit II (Roche Diagnostics Inc., Cat. No. 1 465 015) to obtain the cell viability. The procedure was carried out according to the instruction manual attached, and brief summaries were as follows.
# XTT labeling reagent and electron coupling reagent included in the kit were mixed at the ratio of 50:1, and 50 μL of mixture was added per 0.1 mL of medium in each well; then reacted for 4 hours at 37° C. After the termination of the reaction, absorbance at 492 nm of the wave length was measured by using ELISA plate reader (Dainippon Pharma Co.), wherein the reference wave length was 690 nm.
# In the above-mentioned (2-2), the same cell proliferation counting assay II was performed instead of honokiol to magnolol and their concentration used was at the range from 20 to 60 μM.
# [2] = system: M-CSF dependent cells derived from mice bone marrow cells (BMM); test: Cell proliferation counting assay (XTT) in bone marrow derived cells
# Protocol: Alternatively, the cell proliferation counting assay was performed as the same as that in the example 1, the cell viability was obtained. In FIG. 2A, the cell viability was shown as white columns.
# [3] = system: M-CSF dependent cells derived from mice bone marrow cells; test: Pit formation assay of mature osteoclast; format: cell-based, mouse; details: 10 μM, 1 day, calcium phosphate apatite coated plate
# Protocol: Alternatively, the bone marrow cells were obtained form the shanks and femurs from ddy mice of 6 to 9 week age, similarly to the methods employed in the example 3.
# Obtained bone marrow cells were suspended in 10% FBS-MEM including 100 U/mL of sodium penicillin G, 100 μg/mL of streptomycin sulfate, 50 ng/mL of M-CSF, and 1 ng/mL of TGF-β. Then, the suspension was plated at 0.85×10^6 cells/0.1 mL/well into the 16 well multi slide plate (BioCoat Osteologic Bone Cell Culture System; BD Biosciences, Cat. No.: 354609) which was coated by calcium phosphate apatite, and incubated under the presence of 5% CO2, at 37° C.
# After three days incubation, the medium was exchanged to that including 50 ng/mL of M-CSF and 100 ng/mL of osteoclast differentiation factor (ODF/RANKL). Subsequently, the plates were incubated under the same condition until the formation of actin ring, the osteoclast activated structure, was confirmed. After the actin ring was formed, honokiol prepared as the same concentration used in the example 1 is added, and incubated further one day. To the control group, the solvent without honokiol was added.
# After 1 day incubation from the addition of honokiol, the medium in the well was discarded, and the plate was washed by using phosphate buffered saline (PBS); then, 0.1 mL of 0.1 M NaOH is added to every well to dissolve the cells in it. […]
# [4] = system: MC3T3-E1 cells; test: Cell viability after osteoblast differentiation induction (MTT assay); format: cell-based, mice; details: 30 μM, 7 days
# Protocol: As an evaluation method for the effect against the differentiation of osteoblast, MC3T3-E1 cell osteoblast differentiation induction assay was used. In the assay, the activity of alkaline phosphatase (ALP), the early stage differentiation marker enzyme of osteoblast, was determined, and the staining utilizing the activity (ALP staining) was performed. Expression level of osteocalcin, which is the marker of the differentiated osteoblast, was determined by using the EIA kit described above. Furthermore, in order to know the cytotoxicity, the cell viability was determined by using MTT assay. MC3T3-E1 cells were plated into the wells of the 96-well microplate at the concentration of 4×10^3 cells/well, and incubated two days under the presence of 5% of CO2, at 37° C. until cells became confluent in the well. […] The medium was exchanged every 3 or 4 days. In order to determine the cell viability, MC3T3-E1 cells were cultured for 7 days under the condition as described above. After that, MTT reagent was added into the well at the 1/10 volume of the medium in the well, and reacted for 1 hour at 37° C. Then, the medium was removed, and generated formazan was dissolved in DMSO; then its absorbance was measured by using microplate reader at the wave length of 570 nm (reference wave length was 630 nm).
# [5] = system: MC3T3-E1 cells; test: Osteoblast differentiation induction assay, osteocalcin concentration (EIA); format: cell-based, mice; details: 3 to 30 μM, 14 days, culture supernatant
# Protocol: As an evaluation method for the effect against the differentiation of osteoblast, MC3T3-E1 cell osteoblast differentiation induction assay was used. In the assay, the activity of alkaline phosphatase (ALP), the early stage differentiation marker enzyme of osteoblast, was determined, and the staining utilizing the activity (ALP staining) was performed. Expression level of osteocalcin, which is the marker of the differentiated osteoblast, was determined by using the EIA kit described above. Furthermore, in order to know the cytotoxicity, the cell viability was determined by using MTT assay. MC3T3-E1 cells were plated into the wells of the 96-well microplate at the concentration of 4×10^3 cells/well, and incubated two days under the presence of 5% of CO2, at 37° C. until cells became confluent in the well. […] The medium was exchanged every 3 or 4 days. In order to determine the concentration of osteocalcin, culture supernatant of MC3T3-E1 cells cultured for 14 days under the above-mentioned conditions was used. Amount of osteocalcin in the culture supernatant was determined according to the procedure written on an instruction manual attached to the EIA kit.
structure (smiles),measurement,setting,value
C=CCc1ccc(O)c(-c2ccc(O)c(CC=C)c2)c1 [honokiol],non-specific cytotoxicity to MφRAW264 cells,[1],does not show non-specific cytotoxicity
same,non-specific cytotoxicity (XTT assay),[2],did not show non-specific cytotoxicity
same,pit formation,[3],significantly decreased
same,cell viability of MC3T3-E1 cells,[4],slightly decreased
same,expression level of osteocalcin,[5],enhanced
